Non-standard residues stand in square brackets, D forms with d. No end group written: not given here.

In the first assay the test system is guinea pig ileum longitudinal muscle with adhering myenteric plexus. The experiment in a line: Guinea pig ileum test (inhibition of electrically induced twitch of longitudinal muscle strips). Format: cell-based. The note with it: ratio of IC50 of reference Met^5-enkephalin to IC50 of test compound in the same preparation, averaged (N=4); reference given as 100. The procedure: Adult male guinea pigs (Charles River, Hartley strain) weighing 300-500 g. are decapitated, and the terminal ileum is exposed by reflecting the overlying cecum, severed at the ileocecal juncture, and removed while cutting the mesenteric attachments to avoid excessive traction on the tissue. The ileum (about 30 cm. in length) is transferred to a beaker containing warm modified Krebs-Henseleit solution (118 mM sodium chloride, 4.75 mM potassium chloride, 2.54 mM calcium chloride, 1.19 mM potassium dihydrogen phosphate, 1.2 mM magnesium sulfate, 25 mM sodium bicarbonate, 11 mM glucose, 20 μM choline chloride and 0.125 μM pyrilamine maleate). The terminal (aboral) portion (about 10 cm, in length) is discarded, and segments (3-4 cm. in length) are cut from the remainder and gently slid onto a glass rod (5-6 mm. in diameter) and arranged so that the mesenteric attachment is in a straight line. A cotton swab moistened in the solution is then carefully used to separate the longitudinal muscle from the underlying circular muscle. The longitudinal muscle and adhering myenteric plexus is then gently removed from the remaining tissue with forceps.
Strips of thus prepared longitudinal muscle are mounted in a double-jacketed organ bath (5 ml.) under tension (1.0 g.), connected to isometric transducers (Grass FT 0.03), bathed in the modified Krebs-Henseleit solution described above, aerated with oxygen-carbon dioxide (95:5) and maintained at 37° C.
Stimulators (Grass S-44) are set to deliver repetitive, monophasic square wave field stimulation (supramaximal voltage, 0.10 Hz., 0.25 msec. duration) through platinum ring electrodes at the top and bottom of the bath. Regular contractions of the muscle, which result from electrically-induced liberation of acetylcholine from postganglionic parasympathetic nerves, are recorded on a polygraph (Grass model 5). Following tissue equilibration (45-60 min.) and repeated washing (every 10 min.) an aqueous solution of a reference or test compound is added to the bath in a microliter volume (1.25-250 μl) and reductions in muscle twitch height are recorded. More compound can be added […] first washing the preparation.
From the results a half-maximal inhibitory concentration (IC50) value for the compound is computed by regression analysis of a linear plot of logarithm of concentration against percent of inhibition of twitch height (probits). The ratio of the IC50 value of a reference compound to that of a test compound tested in the same preparation is the molar potency ratio. At least four preparations are tested simultaneously (N=4), and the resulting molar potency ratios are averaged.
The following results were obtained using the examples as test compounds and Met^5 -enkephalin as the reference compound: […]
Regarding `CC(C)CCNC(=O)[C@H](Cc1ccccc1)NC(=O)[C@@H](C)NC(=O)[C@@H](N)Cc1ccc(O)cc1` [Example 1, L-tyrosyl-D-alanyl-N-(3-methylbutyl)-L-phenylalaninamide], the “Average Molar Potency Ratio” value was determined as 25.
The same measure, in the same setting: with `CC(C)CCN(CCc1ccccc1)C(=O)[C@H](Cc1ccccc1)NC(=O)[C@@H](C)NC(=O)[C@@H](N)Cc1ccc(O)cc1` [Example 2, L-tyrosyl-D-alanyl-N-(3-methylbutyl)-N-(2-phenylethyl)-L-phenylalaninamide] the figure was 6.
For `CC(C)CCNC(=O)[C@H](Cc1ccccc1)NC(=O)[C@@H](CN(C)C)NC(=O)[C@@H](N)Cc1ccc(O)cc1` [Example 3, L-tyrosyl-3-(dimethylamino)-D-alanyl-N-(3-methylbutyl)-L-phenylalaninamide], the “Average Molar Potency Ratio” value was 5.
As for “D,L-N-(3-methylbutyl)-2-[(L-tryosyl-D-alanyl)amino]benzenepentanamide [Example 7]”, the “Average Molar Potency Ratio” value is on record as 5.
Still for that read-out and setting: the result for Met^5 -enkephalin [reference compound] reads 100.

A further assay has the same test system.
Assay: not given
The following applies: Vavrek et al., Abstract P-76, 1981; cited from earlier work.
Take Tyr-[dA]-Phe-NH2: the “activity as % of Met-enkephalin on the stimulated guinea pig ileum” value is 25%.

Source of the values: US4658013A, “Analgesic and/or opiate antagonist tripeptide amides and processes for preparation and compositions thereof” (Sterling Drug Inc., priority 1983, dated 1987).
